We go through one compound from patent US20250134906A1 (Woolsey Pharmaceuticals, Inc., priority 2022, published 2025).

Each structure is given as a SMILES string. Counter-ions that a name gives are not always drawn.

The nature of data set [1]: Solubility and stability of unbuffered aqueous fasudil solutions stored at 60° C. for 42 days. Type of data set: physicochemical. Particulars: 16-20 mg/ml. How it is done: Samples were stored at 60° C. for 42 days.
Data set [2] in a line: Stability of aqueous fasudil in 0.05M citrate buffer with or without EDTA, 60° C. for 36 days. The format is physicochemical. Here is the method:
Samples were stored at 60° C. for 36 days.

Take `O=S(=O)(c1cccc2cnccc12)N1CCCNCC1` [Fasudil, hexahydro-1-(5-isoquinolinesulfonyl)-1H-1,4-diazepine monohydrochloride hemihydrate]: the “changes in fasudil concentration or pH” value in data set [1] is “stable in the range of pH 4 to pH 6”. The “changes in pH or fasudil concentration” value in data set [2] was “compatible with EDTA in citrate buffer”.
